Data taken from patent US12616203B2, “Use of 3-isoxazolidinones compounds as selective herbicides” (FMC Corporation, priority 2014, dated 2026).

Tests used:
weeds [1] = assay: Ex10 PRE greenhouse; format: in vivo; details: 28 DAT, weed and rate in the words
Source text: Treatments 1-12 of 2,4-DC and aclonifen tank-mix combinations follow same rates listed above. […] Sulfentrazone (Spartan 4F® 39.6%) at 280 g ai/ha, pendimethalin (Prowl 3.3®EC, 37.4%) at 784 g ai/ha, or S-metolachlor (Dual II Magnum® 82.4%) at 1084 g ai/ha were applied as commercial standards. Treatments were replicated 3 times and flats were watered after planting but before the treatment and lightly watered after treatment application. Thereafter flats were watered and fertilized routinely. […] Shepherd's-purse was rated at 21 and 28 DAT only, due to delayed emergence.

weeds [2] = assay: Ex21 PRE greenhouse; format: in vivo; details: 28 DAT, weed and rate in the words
Source text: 2,4 DC (36.7% CS) was applied PRE at 0, 125, 170, 210, or 250 g ai/ha alone or as a tank-mix with S-metolachlor (Dual II Magnum®, 82.4%) at 0, 267, 534, 801, or 1070 g ai/ha. Pyroxasulfone plus fluthiacet-methyl (Anthem™, 23.3%) applied at 169.9 g ai/ha, and the tank-mix of mesotrione (Callisto®, 40%) at 123 g plus S-metolachlor (Dual II Magnum®, 82.4%) at 1252 g were included as standards for comparison. […] Thereafter flats were watered and fertilized routinely. Each treatment was replicated three times.

weeds [3] = assay: Ex16 PRE greenhouse; format: in vivo; details: weed and rate in the words
Source text: (§1) To determine PRE efficacy, five levels of 2,4 DC (36.7% CS) 0, 125, 170, 210, or 250 g ai/ha and five levels of pyroxasulfone (KIH485-85WG) 0, 50, 65, 80, or 95 g ai/ha were applied either alone or as tank-mix. Additional treatments consisted of premix of pyroxasulfone plus fluthiacet-methyl (Anthem™ 23.3%) at 169.9 g ai/ha, S-metolachlor (Dual II Magnum, 82.4%) at 1388 g, and tank-mix of mesotrione (Callisto, 40%) at 123 g plus S-metolachlor at 1252 g. […] Treatments were applied before the emergence of black nightshade, giant foxtail, green foxtail, yellow foxtail, large crabgrass, kochia, redroot pigweed, common ragweed, and barnyardgrass.
(§2) Flats were watered and fertilized routinely after treatment application. Each treatment was replicated three times.

[4] = system: weeds; Corn (var. Viking); assay: Ex15 PRE greenhouse; format: in vivo; details: rate in the words
Source text: (§3) The weeds tested in this study were redroot pigweed (Amaranthus retroflexus, AMARE), Jimsonweed (Datura stramonium, DATST), black nightshade (Solanum nigrum, SOLNI), large crabgrass (Digitaria sanguinalis, DIGSA), Pennsylvania smartweed (Polygonum pensylvanicum, POLPY), horseweed (Conyza canadensis, ERICA), wild buckwheat (Polygonum convolvulus, POLCO). The crop tested was Corn (var. Viking).
(§4) To determine PRE efficacy and corn injury, five rates of each 2,4 DC (36.7% CS) and S-metolachlor (Dual II Magnum®, 82.4%) were applied either alone or as tank-mix. 2,4 DC was applied at 0, 125, 170, 210, or 250 g ai/ha and S-metolachlor was applied at 0, 267, 534, 801, or 1070 g ai/ha. Additional treatments included application of premix of pyroxasulfone plus fluthiacet-methyl (Anthem™ 23.3%) at 169.9 g ai/ha and tank-mix of mesotrione (Callisto®, 40%) at 123 g plus S-metolachlor at 1252 g. Treatments were applied just after the planting of large crabgrass, Jimsonweed, black nightshade, redroot pigweed, Pennsylvania smartweed, horseweed, wild buckwheat, and corn.
(§5) Flats were watered and fertilized routinely after treatment application. Each treatment was replicated three times. […] Corn injury was rated for bleaching and stunting.

weeds [5] = assay: Ex22 PRE greenhouse; format: in vivo; details: 28 DAT, weed and rate in the words
Source text: 2,4 DC (36.7% CS) was applied PRE at 0, 125, 170, 210, or 250 g ai/ha alone or as a tank-mix with S-metolachlor (Dual II Magnum®, 82.4%) at 0, 267, 534, 801, or 1070 g ai/ha. Pyroxasulfone plus fluthiacet-methyl (Anthem™, 23.3%) applied at 169.9 g ai/ha, and the tank-mix of mesotrione (Callisto®, 40%) at 123 g plus S-metolachlor (Dual II Magnum®, 82.4%) at 1252 g were included as a standards for comparison.
Thereafter flats were watered and fertilized routinely. Each treatment was replicated three times.

Pennsylvania smartweed = assay: Ex15 PRE 2,4-DC + S-metolachlor, % control 28 DAT, Colby; format: in vivo, Polygonum pensylvanicum
Source text: as §3, §4, §5

Black nightshade = assay: as above; format: in vivo, Solanum nigrum
Source text: as §3, §4, §5

jimsonweed = assay: as above; format: in vivo, Datura stramonium
Source text: as §3, §4, §5

Wild buckwheat [6] = assay: as above; format: in vivo, Polygonum convolvulus
Source text: as §3, §4, §5

weeds; Corn = assay: Ex25 PRE greenhouse; format: in vivo; details: rate in the words
Source text: The crop tested in this study was Corn.
2,4 DC-21 (36.7% CS) was applied PRE at 0, 125, 170, 210, or 250 g ai/ha alone or as a tank-mix with pyroxasulfone (KIH-485, 85% WP) at 0, 50, 65, 80, or 95 g ai/ha. Pyroxasulfone plus fluthiacet-methyl (Anthem™, 23.3%) applied at 169.9 g ai/ha, s-metolachlor (Dual II Magnum®, 82.4%) applied at 1389 g, and the tank-mix of mesotrione (Callisto®, 40%) at 123 g plus s-metolachlor (Dual II Magnum®, 82.4%) at 1252 g were included as a standards for comparison. […] Thereafter flats were watered and fertilized routinely.

weeds [7] = assay: Ex13 PRE greenhouse; format: in vivo; details: 28 DAT, weed and rate in the words
Source text: Pyroxasulfone (KIH-485, 85%) at 74.3 g ai/ha, pendimethalin (Prowl 3.3EC, 37.4%) at 1200 g ai/ha, or a premix of chlorsulfuron plus metsulfuron-methyl (Report Extra, 75%) at 15.8 g ai/ha were applied as commercial standards. […] Treatments were replicated 3 times and flats were watered after planting before the treatment and lightly watered after treatment application. Thereafter flats were watered and fertilized routinely.

weeds [8] = assay: Ex24 PRE greenhouse; format: in vivo; details: weed and rate in the words
Source text: The tested weeds include Giant foxtail (Setaria faberi, SETFA), green foxtail (Setaria virdis, SETVI), yellow foxtail (Setaria pumila, SETLU), black nightshade (Solanum nigrum, SOLNI), kochia (Kochia scoparia, KCHSC), redroot pigweed (Amaranthus retroflexus, AMARE), common ragweed (Ambrosia artemisiifolia, AMBEL), barnyardgrass (Echinochloa crus-galli, ECHCG), large crabgrass (Digitaria sanguinalis, DIGSA).
as §1, with “DC-21” for “DC”, “Magnum®,” for “Magnum,”, “(Callisto®,” for “(Callisto,”, “bamyardgrass. […] Flats were watered and fertilized routinely after treatment application. Each treatment was replicated three times.” for “barnyardgrass.”

[9] = system: weeds; Wheat, barley, and oil seed rape (OSR); assay: Ex19 PRE greenhouse; format: in vivo; details: rate in the words
Source text: In this study, the crops tested included Wheat, barley, and oil seed rape (OSR).
To determine weed efficacy and wheat, barley or OSR selectivity, 2,4 DC (CS 36.7%) and Diflufenican (CS 19.5%) were applied preemergence either alone or as tank-mix partners at the following rates. 2,4 DC was applied at 125, 170, 210 and 250 g ai/ha while Diflufenican was applied at 50, 75, and 100 g ai/ha. Pyroxasulfone (KIH-485, 85%) at 74.3 g ai/ha, pendimethalin (Prowl 3.3EC, 37.4%) at 1200 g ai/ha, or a premix of chlorsulfuron plus metsulfuron-methyl (Report Extra, 75%) at 15.8 g ai/ha were applied as commercial standards.
Herbicides included as standards for comparison were pyroxasulfone, pendimethalin, and a pre mix of chlorsulfuron plus metsulfuron methyl, all applied at labeled rates as indicated above. Treatments were replicated 3 times. […] Thereafter flats were watered and fertilized routinely.

Morningglory sp. = assay: Ex38 PRE 2,4-DC + pyroxasulfone, % control 28 DAT, Colby; format: in vivo, Ipomea spp; details: PRE
Source text: Pyroxasulfone plus fluthiacet-methyl (ANTHEM™, 23.3%) applied at 165 g ai/ha was included as a standard for comparison. […] Thereafter flats were watered and fertilized routinely.

Common ragweed = assay: Ex16 PRE 2,4-DC + pyroxasulfone, % control 28 DAT, Colby; format: in vivo, Ambrosia artemisiifolia
Source text: as §1, §2

Blackgrass = assay: Ex34 PRE 2,4-DC + napropamide, % control, Colby; format: in vivo, Alopecurus myosuroides; details: 28 DAT
Source text: (§6) Thereafter flats were watered and fertilized routinely.

Annual bluegrass = assay: Ex34 PRE 2,4-DC + napropamide, % control, Colby; format: in vivo, Poa annua; details: 28 DAT
Source text: as §6

Littleseed canarygrass = assay: Ex34 PRE 2,4-DC + napropamide, % control, Colby; format: in vivo, Phalaris minor; details: 28 DAT
Source text: as §6

Common lambsquarters = assay: Ex34 PRE 2,4-DC + napropamide, % control, Colby; format: in vivo, Chenopodium album; details: 28 DAT
Source text: as §6

weeds [10] = assay: Ex18 PRE greenhouse; format: in vivo; details: weed and rate in the words
Source text: Additional treatments included application of metazachlor (Butisan®, 43.1%) at 750 g ai/ha, napropamide (Devrinol DF®, 50%) at 1260 g ai/ha, and dimethachlor (Teridox®, 48%) at 1000 g ai/ha. […] Treatments were applied just after the seeding of annual bluegrass, cheat, wild oat, quackgrass, field violet, blackgrass, littleseed canarygrass, silky windgrass, yellow foxtail, and goosegrass. […] Flats were watered and fertilized routinely after treatment application. Each treatment was replicated three times.

weeds; canola = assay: Ex34 PRE greenhouse; format: in vivo; details: rate in the words
Source text: as §6

Wild buckwheat [11] = assay: Ex34 PRE 2,4-DC + napropamide, % control, Colby; format: in vivo, Polygonum convolvulus; details: 28 DAT
Source text: as §6

[12] = S-metolachlor alone 267 g ai/ha
[13] = S-metolachlor alone 534 g ai/ha
[14] = S-metolachlor alone 801 g ai/ha
[15] = S-metolachlor alone 1070 g ai/ha

For `CCc1cccc(C)c1N(C(=O)CCl)[C@@H](C)COC` [S-metolachlor, reference compound], the “weed control in words” value (weeds [1]) was “at 1064 g controlled only two weeds”, the “weed control in words” value (weeds [2]) was “applied alone controlled yellow foxtail, green foxtail, and barnyardgrass at all rates, quackgrass or common chickweed at ≥534 g, and common lambsquarters at ≥801 g” and the “weed control in words” value (weeds [3]) was “controlled black nightshade, redroot pigweed, barnyardgrass, large crabgrass, and all three foxtail species”. For the same compound, the “weed control / crop safety in words” value [4] was “alone gave control of all species at different rates except Jimsonweed”, the “weed control in words” value (weeds [5]) was “applied alone controlled Johnsongrass and goosegrass at all rates and controlled Benghal dayflower, prickly sida and common lambsquarters at 801 g” and the Y (Pennsylvania smartweed; [12]) was 75%. The Y (Pennsylvania smartweed; [13]) was 95%, the Y (Pennsylvania smartweed; [14]) was 100% and the Y (Pennsylvania smartweed; [15]) was 100%. The Y (Black nightshade; [12]) was 46%, the Y (Black nightshade; [13]) was 85% and the Y (Black nightshade; [14]) was 90%. For the same compound, the Y (Black nightshade; [15]) was 95%, the Y (jimsonweed; [12]) was 17% and the Y (jimsonweed; [13]) was 17%. For the same compound, the Y (jimsonweed; [14]) was 23%, the Y (jimsonweed; [15]) was 28% and the Y (Wild buckwheat [6]; [12]) was 33%. It also gave a Y (Wild buckwheat [6]; [13]) of 65%, a Y (Wild buckwheat [6]; [14]) of 82% and a Y (Wild buckwheat [6]; [15]) of 85%. For the same compound, the “weed control / crop safety in words” value (weeds; Corn) was “controlled only black nightshade and also caused severe stunting to corn”.
For `Cn1nc(C(F)(F)F)c(CS(=O)(=O)C2=NOC(C)(C)C2)c1OC(F)F` [Pyroxasulfone, pyroxasulfone, reference compound], the “weed control in words” value (weeds [3]) was “controlled all species except common ragweed which was not controlled at any rate”, the “weed control in words” value (weeds [7]) was “at 74.3 g controlled all weeds except tall morningglory and shepherd's-purse” and the “weed control in words” value (weeds [8]) was “controlled all species except common ragweed which was not controlled at any rate”. For the same compound, the “weed control / crop safety in words” value [9] was “controlled all weeds except field violet and was safe on wheat only”, the “Y (% control, pyroxasulfone alone)” value (Morningglory sp.; pyroxasulfone 30 g ai/ha) was 9% and the “Y (% control, pyroxasulfone alone)” value (Morningglory sp.; pyroxasulfone 60 g ai/ha) was 60%. The “Y (% control, pyroxasulfone alone)” value (Morningglory sp.; pyroxasulfone 90 g ai/ha) was 65%, the Y (Common ragweed; pyroxasulfone alone 50 g ai/ha) was 40% and the Y (Common ragweed; pyroxasulfone alone 65 g ai/ha) was 53%. The Y (Common ragweed; pyroxasulfone alone 80 g ai/ha) was 40% and the Y (Common ragweed; pyroxasulfone alone 95 g ai/ha) was 70%.
Compound `CCN(CC)C(=O)C(C)Oc1cccc2ccccc12` (centres unmarked) [napropamide, reference compound] has a Y (Blackgrass; Napropamide alone 315 g ai/ha) of 5%, a Y (Blackgrass; Napropamide alone 630 g ai/ha) of 7% and a Y (Blackgrass; Napropamide alone 1260 g ai/ha) of 15%. For the same compound, the Y (Annual bluegrass; Napropamide alone 315 g ai/ha) was 1%, the Y (Annual bluegrass; Napropamide alone 630 g ai/ha) was 77% and the Y (Annual bluegrass; Napropamide alone 1260 g ai/ha) was 92%. The Y (Littleseed canarygrass; Napropamide alone 315 g ai/ha) was 50%, the Y (Littleseed canarygrass; Napropamide alone 630 g ai/ha) was 87% and the Y (Littleseed canarygrass; Napropamide alone 1260 g ai/ha) was 100%. It also gave a Y (Common lambsquarters; Napropamide alone 315 g ai/ha) of 50%, a Y (Common lambsquarters; Napropamide alone 630 g ai/ha) of 73% and a Y (Common lambsquarters; Napropamide alone 1260 g ai/ha) of 91%. The “weed control in words” value (weeds [10]) was “controlled all weeds except blackgrass”, the “weed control / crop safety in words” value (weeds; canola) was “alone at 630 g controlled littleseed canarygrass, at 1260 g controlled common lambsquarters, annual bluegrass and Italian ryegrass and was safe on canola at all rates” and the Y (Wild buckwheat [11]; Napropamide alone 315 g ai/ha) was 23%. It also gave a Y (Wild buckwheat [11]; Napropamide alone 630 g ai/ha) of 23% and a Y (Wild buckwheat [11]; Napropamide alone 1260 g ai/ha) of 38%.
